# Reference: ChEMBL document CHEMBL1201862, “PubChem BioAssay data set” (2004)
# Where a name gives a salt, the structure may show the parent alone. Calls of active or inactive are those of the source.
# Key:
# H9c2 = experiment: cells; assay type: functional, cell-based; details: Rattus norvegicus, H9c2, Myocardium;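 note: confirmatory concentration-response retest of ultra-high-throughput screening hits for modulation of myocardial damage; cell death induced by hydrogen peroxide oxidative stress; compound pretreatment for 60 min then peroxide exposure for 2 h; potency is for protecting the cells against peroxide damage rather than for killing them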
# Bcl-2-like protein 1 = Bcl-2-like protein 1 (Homo sapiens, UniProt Q07817); experiment: BCL-XL inhibitors, dose response, selectivity assay for MCL1 inhibitor project, biochemical, fluorescence polarization, 1536-well (AID 2218)
# Sequence of Bcl-2-like protein 1 (Q07817 whole entry): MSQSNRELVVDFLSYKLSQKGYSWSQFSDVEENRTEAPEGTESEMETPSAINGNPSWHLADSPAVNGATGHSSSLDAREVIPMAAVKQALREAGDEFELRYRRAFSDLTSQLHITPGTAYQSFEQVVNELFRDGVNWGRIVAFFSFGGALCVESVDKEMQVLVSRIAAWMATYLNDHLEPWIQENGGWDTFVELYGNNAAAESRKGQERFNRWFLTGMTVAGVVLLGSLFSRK
# [1] = target: Induced myeloid leukemia cell differentiation protein Mcl-1 (Homo sapiens, UniProt Q07820); experiment: MCL1-BIM BH3 interaction inhibitors, dose response, biochemical, fluorescence polarization, BIM-BH3 peptide, 1536-well (AID 2217)
# Sequence of Induced myeloid leukemia cell differentiation protein Mcl-1 (Q07820 whole entry): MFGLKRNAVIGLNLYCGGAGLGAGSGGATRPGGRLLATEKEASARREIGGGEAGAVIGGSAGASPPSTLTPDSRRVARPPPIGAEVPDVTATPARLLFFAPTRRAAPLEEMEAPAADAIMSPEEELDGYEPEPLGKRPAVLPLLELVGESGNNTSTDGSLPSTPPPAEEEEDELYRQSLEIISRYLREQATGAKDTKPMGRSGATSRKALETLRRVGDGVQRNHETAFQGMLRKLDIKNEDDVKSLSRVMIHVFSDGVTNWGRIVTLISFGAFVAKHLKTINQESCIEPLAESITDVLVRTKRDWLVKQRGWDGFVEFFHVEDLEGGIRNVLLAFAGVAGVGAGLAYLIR
# [2] = cytotoxicity toward NIH3T3 fibroblasts, dose response, counter-screen, cell-based, ATP luminescence, mouse fibroblasts (AID 2010); assay type: functional;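 note: cells exposed to compound for about 90 hours before reading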
# cells [3] = experiment: cells
# [4] = inhibitors of intracellular T. cruzi replication, confirmation, NIH3T3 host cells, beta-gal luminescence (AID 2044); assay type: functional, cell-based;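 note: intracellular parasites grown in NIH/3T3 mouse fibroblasts as host cells; luminescent beta-galactosidase reporter signal from transgenic T. cruzi replicating inside host cells; inhibitors lower the luminescence signal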
# [5] = LGR2 antagonists, dose response, cell-based, HEK293, CRE-luciferase reporter, cherry pick, set 2 (AID 743343); assay type: functional;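 note: transfected cells were stimulated with diluted bursicon conditioned medium after compound addition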
# [6] = HEK293 cell cytotoxicity, dose response, cytotoxicity control, plate reader, cherry-picked samples (AID 743446); assay type: functional, cell-based
# [7] = target: T1, COUP transcription factor 2 (Homo sapiens, UniProt P24468); experiment: Luminescence-based cell-based high throughput dose response assay to identify inhibitors of COUP-TFII (NR2F2).; assay type: functional;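 note: HEK293 cells transiently cotransfected with COUP-TFII expression vector and reporter; luciferase reporter luminescence driven by COUP-TFII from the pX2-168 reporter plasmid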
# T1 sequence (P24468 whole entry): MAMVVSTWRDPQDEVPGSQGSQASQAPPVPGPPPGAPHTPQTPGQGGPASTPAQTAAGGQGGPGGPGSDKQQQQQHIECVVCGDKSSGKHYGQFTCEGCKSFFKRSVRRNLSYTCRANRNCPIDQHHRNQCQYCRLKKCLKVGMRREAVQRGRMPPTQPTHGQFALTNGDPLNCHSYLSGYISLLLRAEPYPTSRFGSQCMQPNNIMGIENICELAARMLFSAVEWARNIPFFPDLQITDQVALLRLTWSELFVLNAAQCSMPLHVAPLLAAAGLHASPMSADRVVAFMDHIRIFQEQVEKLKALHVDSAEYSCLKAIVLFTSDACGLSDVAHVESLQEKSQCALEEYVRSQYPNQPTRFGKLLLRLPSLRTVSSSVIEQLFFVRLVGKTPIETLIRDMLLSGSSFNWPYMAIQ
# [8] = target: T2, Heat shock factor protein 1 (Mus musculus, UniProt P38532); experiment: inhibition of MG132-induced HSE-luciferase signal, confirmation, cell-based, NIH3T3, luminescence, dose retest (AID 2382); assay type: functional;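 note: NIH3T3 fibroblasts with HSF1-driven luciferase reporter stressed by proteasome inhibitor MG132; luminescence from HSF1-driven luciferase expression after 8 hours of MG132 stress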
# T2 sequence (P38532 whole entry): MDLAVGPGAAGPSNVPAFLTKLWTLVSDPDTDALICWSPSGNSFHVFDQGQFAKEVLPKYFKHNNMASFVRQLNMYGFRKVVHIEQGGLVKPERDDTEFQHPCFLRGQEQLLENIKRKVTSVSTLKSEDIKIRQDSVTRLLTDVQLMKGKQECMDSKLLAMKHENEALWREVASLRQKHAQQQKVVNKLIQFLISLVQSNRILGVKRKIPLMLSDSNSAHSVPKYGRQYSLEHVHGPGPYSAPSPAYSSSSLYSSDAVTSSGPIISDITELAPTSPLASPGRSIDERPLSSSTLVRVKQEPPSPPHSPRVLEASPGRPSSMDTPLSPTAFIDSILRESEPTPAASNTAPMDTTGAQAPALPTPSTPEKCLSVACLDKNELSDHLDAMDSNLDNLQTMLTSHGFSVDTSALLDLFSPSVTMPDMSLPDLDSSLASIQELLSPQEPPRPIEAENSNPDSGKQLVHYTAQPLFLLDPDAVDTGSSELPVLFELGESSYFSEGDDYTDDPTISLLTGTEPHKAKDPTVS
# [9] = MC4R antagonists, dose response, counter-screen for LGR2 antagonist project, cell-based, plate reader, cherry pick (AID 743444); assay type: functional;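 note: transfected HEK 293 cells stimulated with alpha-MSH peptide; potency of inhibitors of the alpha-MSH evoked signal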
# [10] = target: T3, Microphthalmia-associated transcription factor (Homo sapiens, UniProt O75030); experiment: TRPM1 promoter luciferase signal decrease, dose response, MITF inhibitor project, cell-based, SK-MEL-5, cherry-picked, set 3 (AID 493073); assay type: functional
# T3 sequence (O75030 whole entry): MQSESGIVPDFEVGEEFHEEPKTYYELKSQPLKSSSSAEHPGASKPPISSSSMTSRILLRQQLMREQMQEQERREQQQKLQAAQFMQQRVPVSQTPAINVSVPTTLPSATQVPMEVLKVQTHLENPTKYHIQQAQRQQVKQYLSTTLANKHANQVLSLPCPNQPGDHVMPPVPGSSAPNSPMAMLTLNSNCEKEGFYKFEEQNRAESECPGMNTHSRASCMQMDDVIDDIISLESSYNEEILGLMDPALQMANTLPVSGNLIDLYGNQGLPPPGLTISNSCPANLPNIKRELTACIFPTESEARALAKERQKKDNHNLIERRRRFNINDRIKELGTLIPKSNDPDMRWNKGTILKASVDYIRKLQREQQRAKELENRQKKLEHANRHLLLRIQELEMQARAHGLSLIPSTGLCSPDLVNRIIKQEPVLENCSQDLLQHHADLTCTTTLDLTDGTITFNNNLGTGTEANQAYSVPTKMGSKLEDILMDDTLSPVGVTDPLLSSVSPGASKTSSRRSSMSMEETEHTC
# A-375 [11] = experiment: A375 melanoma cell viability reduction, dose response, counter-screen for MITF modulator project, cherry-pick samples, set 2 (AID 540335); assay type: functional, cell-based; details: Homo sapiens
# cells [12] = assay type: functional, cell-based
# [13] = inhibitors of SNCA 5'UTR-driven translation, confirmation, luminescence, H4 neuroglioblastoma cells, dose confirmation (AID 2454); assay type: functional, cell-based;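 note: H4 neuroglioblastoma cells carrying an alpha-synuclein 5'UTR luciferase reporter; potency for inhibition of the luciferase signal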
# [14] = cytotoxicity in HEK-293T cells, dose response, cytotoxicity control for BCR NF-kB inhibitor project, luminescence, B-cell screen hits (AID 489021); assay type: functional, cell-based;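 note: HEK-293T cells carrying an NF-kB luciferase reporter; cells exposed to compound for about 14 hours before viability readout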
# [15] = inhibitors of firefly luciferase expression or activity, dose response, H4 neuroglioma cells, luminescence (AID 1990); assay type: functional, cell-based
# [16] = luciferase reporter signal reduction – luminescence, H4-C neuroglioblastoma cells, dose response (AID 2458); assay type: functional, cell-based;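 note: H4 neuroglioblastoma cells stably carrying a luciferase reporter gene fusion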
# [17] = Luminescence Cell-Based Dose Response HTS to Identify Inhibitors of 5'UTR Stem-Loop Driven Prion Protein mRNA Translation in H4 Neuroglioblastoma Cells. [Related pubchem assays: 1827 (Project Summary), 1813 (Primary HTS)]; assay type: functional
# A-375 [18] = experiment: MITF: Counter assay: A375 proliferation Measured in Cell-Based System Using Plate Reader - 2084-03_Inhibitor_Dose_DryPowder_Activity. [Related pubchem assays (depositor defined):AID488944]; assay type: functional; details: Homo sapiens
# [19] = inhibitors of SNCA 5'UTR-driven reporter translation, confirmation, H4 neuroglioma cells, luminescence (AID 1988); assay type: functional, cell-based
# [20] = target: Melanin-concentrating hormone receptor 1 (Homo sapiens, UniProt Q99705); experiment: Fluorescence-based counterscreen for antagonists of the G-protein coupled receptor 7 (GPR7): cell-based high throughput dose response assay to identify antagonists of the melanin-concentrating hormone receptor 1 (MCHR1).; assay type: functional
# Sequence of Melanin-concentrating hormone receptor 1 (Q99705 whole entry): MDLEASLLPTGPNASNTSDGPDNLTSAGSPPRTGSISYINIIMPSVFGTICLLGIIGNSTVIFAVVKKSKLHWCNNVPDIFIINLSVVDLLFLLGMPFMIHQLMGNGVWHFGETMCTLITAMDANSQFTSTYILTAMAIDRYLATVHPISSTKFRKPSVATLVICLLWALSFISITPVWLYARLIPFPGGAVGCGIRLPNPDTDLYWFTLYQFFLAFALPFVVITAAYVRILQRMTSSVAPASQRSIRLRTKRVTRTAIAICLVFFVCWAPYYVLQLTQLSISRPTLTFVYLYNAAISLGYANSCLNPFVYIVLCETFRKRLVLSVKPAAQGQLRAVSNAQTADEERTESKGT
# [21] = target: T4, Neuropeptides B/W receptor type 1 (Homo sapiens, UniProt P48145); experiment: Fluorescence-based dose response cell-based high throughput screening assay to identify antagonists of the G-protein coupled receptor 7 (GPR7). [Related pubchem assays: 1952 (Screening assay (GPR7 antagonists).), 1880 (Summary AID.)]; assay type: functional
# T4 sequence (P48145 whole entry): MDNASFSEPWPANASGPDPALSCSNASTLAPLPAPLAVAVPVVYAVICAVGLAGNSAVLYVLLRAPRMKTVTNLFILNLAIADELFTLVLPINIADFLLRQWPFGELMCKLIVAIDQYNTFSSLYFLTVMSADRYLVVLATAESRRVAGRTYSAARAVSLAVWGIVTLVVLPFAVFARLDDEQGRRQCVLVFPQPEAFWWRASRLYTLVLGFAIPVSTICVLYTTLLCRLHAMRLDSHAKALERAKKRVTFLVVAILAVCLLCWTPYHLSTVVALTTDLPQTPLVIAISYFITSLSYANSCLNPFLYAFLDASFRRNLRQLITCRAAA
# [22] = cytotoxicity toward HT-29 cells – cell-based, CellTiter-Glo luminescence, IC50, dose response (AID 1117330); assay type: functional
# [23] = cytotoxicity toward Colo320 cells – cell-based, CellTiter-Glo luminescence, IC50, dose response (AID 1117334); assay type: functional; details: COLO 320
# [24] = RKO cell viability reduction, dose response, CellTiter-Glo luminescence (AID 1117322); assay type: functional
# [25] = cytotoxicity toward HCT116 cells – cell-based, CellTiter-Glo luminescence, IC50, dose response (AID 1117332); assay type: functional; details: HCT-116
# [26] = CellTiter-Glo luminescent dose response of DLD-1 viability loss (AID 1117352); assay type: functional
# [27] = Concentration-dependent survival of SW480 colon cancer line, luminescence detection with CellTiter-Glo, half-maximal inhibitory concentration (AID 1117338); assay type: functional
# [28] = SNU-C1 cell viability reduction, dose response, CellTiter-Glo luminescence (AID 1117323); assay type: functional, cell-based
structure (smiles),measurement,setting,value
CNc1ccccc(C(=O)/C=C/c2ccccc2OC)c1=O,IC50,H9c2,11.5 µM (active)
same,IC50,Bcl-2-like protein 1,> 109 µM (not active)
same,IC50,[1],> 109 µM (not active)
Cc1sc(NC(=O)c2ccco2)c(C(c2cccnc2)N2CCN(c3ccc(F)cc3)CC2)c1C (stereo not drawn),EC50,[2],> 60 µM (not active)
same,EC50,cells [3],0.385 µM (active)
same,EC50,[4],< 0.1 µM (active)
COCCn1c(C)c(C)c2c(NCCc3ccccc3)ncnc21,AC50,[5],6.87 µM (active)
same,AC50,[6],> 52 µM (inactive)
same,IC50,[7],40.1 µM (inactive)
same,EC50,[8],< 0.16 µM (active)
same,AC50,[9],9.75 µM (active)
COc1ccc(CN2CCCC(CO)(Cc3cccc(Cl)c3)C2)cc1OC (stereo not drawn),EC50,[2],> 30 µM (not active)
same,EC50,cells [3],0.352 µM (active)
same,EC50,[4],< 0.1 µM (active)
CC(C)(C)c1ccc(-c2cc(N)[nH]n2)cc1,AC50,[10],0.511 µM (active)
same,AC50,A-375 [11],> 35 µM (active)
same,EC50,cells [12],1.34 µM (active)
same,EC50,[13],0.677 µM (active)
same,IC50,[14],> 80 µM (inactive)
same,EC50,[15],< 0.1 µM (active)
same,EC50,[16],0.403 µM (active)
same,EC50,[17],7.28 µM (active)
same,AC50,A-375 [18],> 35 µM (active)
same,EC50,[19],< 0.1 µM (active)
COc1ccc(S(=O)(=O)N2CCN(CC(=O)Nc3cccc(OC)c3)CC2)cc1,IC50,[20],> 43.8 µM (not active)
same,IC50,[21],> 43.8 µM (not active)
CCN(CCO)CCCC(C)Nc1ccnc2cc(Cl)ccc12 (stereo not drawn) [HYDROXYCHLOROQUINE SULFATE],IC50,[22],> 20 µM (inactive)
same,IC50,[23],> 20 µM (inactive)
same,IC50,[24],> 20 µM (inactive)
same,IC50,[25],> 20 µM (inactive)
same,IC50,[26],> 20 µM (inactive)
same,IC50,[27],> 20 µM (inactive)
same,IC50,[28],> 20 µM (inactive)
